Laboratory results published in US20230372263A1, “METHODS AND COMPOSITIONS FOR TREATING AMYOTROPHIC LATERAL SCLEROSIS” (Amylyx Pharmaceuticals, Inc., priority 2022, published 2023).
Values belong to the molecule of their own block, whether it stands above or below them.

Experiments:
[1] = Population pharmacokinetic model and simulations of PB and PAA (healthy subjects and ALS patients); set-up: species or system human; conditions: for Cmax, Mean: from individual Bayesian (post hoc) parameter estimates; for Cmax, 2.5th percentile / Cmax, 97.5th percentile / Cmax, Geometric mean / Cmax, Median: post hoc Bayesian estimates; for CL/F, apparent (oral) metabolic clearance of phenylbutyrate to phenylacetate / Ka, PB oral absorption rate constant under fasting conditions / Ka, oral absorption rate constant when phenylbutyrate is administered with food / V/F, apparent volume of distribution of phenylbutyrate: population PK
Excerpt: The order of administration with and without food was randomly assigned. […] Subjects were advised to take the drug before a meal. […] No inter-occasion variability (IOV) was included.

[2] = Plasma protein binding in vitro; assay type: in vitro ADME; conditions: plasma, co-administered in vitro
[3] = within 24 hours; cited from earlier work
[4] = clinical; assay type: in vivo, human; conditions: human, in vivo
Method: (§1) • Protocol AMX3500: sparse sampling in 87 subjects with ALS. Approximately 2 samples are collected for each subject, 1 or 4 hours post dose following 12 and 24 weeks of treatment. • Protocol A35-002: rich sampling in 14 healthy adults. Approximately 21 samples are collected over 24 hours for each subject on two occasions, once following a high fat meal and the other under fasting conditions.
A total of 14 healthy subjects were enrolled in order to have no fewer than 12 subjects complete. A predefined mix of gender was selected.
Each study period followed the same study design (FIG. 1). Subjects were screened for inclusion in the study up to 28 days before dosing. Subjects were admitted to the clinical unit during Study Day −2 for Period 1 and Day −1 for Period 2 and were dosed in the morning of Day 1. On the night prior to Period 1 the subjects in the fasted/fed or fed/fasted sequence were fasted for a minimum of 10 h prior to dosing.
The solution was stirred until the powder was mostly dissolved.
Any departures from the intended regimen were recorded in the eCRFs. All dose administrations were performed in the study center under the supervision of appropriately trained staff.
Subjects were provided with a light snack and were then fasted from all food and drink (except water) until the following morning, when they were provided with a high-fat breakfast. The breakfast was consumed over a maximum period of 25 min, and dosing occurred 30 min after the start of breakfast. Subjects were encouraged to eat their meal evenly over the 25 min period. For this trial the subject was deemed compliant if they consumed >80% of the high-fat standard breakfast.
The subjects in the 24-h baseline and in the fasted condition Period remained fasted up to 4 h post-dose and were offered a standardized meal to be taken between 4.00 and 5.00 h post-dose. Subjects in the fed condition were fasted overnight and received a high-fat standard breakfast 30 minutes pre-dose and then remained fasted for 4.00 to 5.00 h post-dose when they received a standardized meal.
Venous blood samples were withdrawn via an indwelling cannula or by venipuncture according to the time schedule presented in Table 5 Table, Table 6, and Table 7.
Blood samples of approximately 4 mL were collected into 4 mL BD Vacutainer Plastic K2EDTA Tubes with Lavender Hemogard Closure, and was gently inverted approximately 8 times. The tubes were then immediately stored on ice and processed within 60 min of collection by centrifugation at 1500 g for 10 min at 2 to 8° C. The resultant plasma was separated equally into 2 aliquots and transferred to 2 mL appropriately labelled primary and backup polypropylene cryovials.
Actual elapsed time from dosing was to be used for the final plasma PK parameter calculations after database lock.

[5] = clinical; assay type: in vivo, human; conditions: human, in vivo; for concentration at 1 h / concentration at 4 h: both sexes
Method: • 1. […] Treatment is administered as one sachet daily for the initial 3 weeks and then increased if tolerated to one sachet twice daily. […] Sampling times are randomly assigned to occur at either 1 or 4 hours post-dose at the 12 week visit and the other time at the 24 week visit. • Treatment duration: 24 weeks • 2.
as §1
Subjects were advised to take the drug before a meal. […] Referred to as protocol 3500.
A study was carried out to examine plasma concentration data in various subgroups for the protocol AMX3500 Phase 2 study. This example summarizes plasma concentrations of TUDCA and 2 metabolites, also related acids, UDCA, the de-conjugated TUDCA metabolite, and GUDCA, the glycine conjugate of UDCA.
For each of the 2 treatment arms (treatment and placebo), subjects were further divided into 2 sample sequence groups for schedule of pharmacokinetic measurements: • 1. 1 hour post-dose for the Week 12 visit and 4 hours post-dose for the Week 24 visit • 2. 4 hours post-dose for the Week 12 visit and 1 hour post-dose for the Week 24 visit
Twenty-four distinct medication descriptions were identified as containing antibiotics. Dates of antibiotic use were compared to dates of visits and if the antibiotic use date range contained the visit date, then that visit was flagged for that subject's data for antibiotic use. […] These antibiotics could hypothetically be in a subject's body still if this event occurred. However, it was observed that only a small number of subjects took antibiotics near to visit dates but not overlapping visit dates. In other cases, subjects were taking antibiotics on the date of one visit but not the others. Some subjects are therefore in both categories of antibiotic use and nonuse, though no individual visits for a subject are counted in both categories at the same time.
Subjects whose race were recorded as “Black” or “African American” were evaluated according to the standard Glomerular Filtration Rate (eGFR) rating for that race. The other standard eGFR rating used, sometimes referred to as a standard for people who are White, was applied to subjects of all other races. These rates were analyzed as continuous in mL/min/1.73 m2 units and as the following categories: • 1. Less than 90 mL/min/1.73 m^2 • 2. Equal to or greater than 90 mL/min/1.73 m^2
Age was converted from a continuous variable to 2 categories: • 1. As old or older than 65 years old • 2. Younger than 65 years old
All boxplots boxes are bounded at the 25th and 75th percentile, with whiskers at 10th and 90th percentiles, outliers beyond that as points, the black line as median, and red line as mean.

[6] = system: human hepatocytes; assay: Metabolites in hepatocytes in vitro; assay type: in vitro ADME
[7] = system: Plasma protein; assay: Plasma protein binding in vitro; assay type: in vitro ADME; conditions: co-administered in vitro
[8] = both sexes, elimination half-lives (range)
[9] = Steady-state plasma concentration

effect of age on pharmacokinetics ([1]; ALS patients aged 65-76 versus less than 65 years, model-based analysis): no significant difference
Cmax, Mean ([1]; ALS patients, Fasting): 131000 ng/mL
Cmax, 2.5th percentile ([1]; ALS patients, Fasting): 10300 ng/mL
Cmax, 97.5th percentile ([1]; ALS patients, Fasting): 414000 ng/mL
Cmax, Geometric mean ([1]; ALS patients, Fasting): 90900 ng/mL
Cmax, Median ([1]; ALS patients, Fasting): 97900 ng/mL
Cmax, Mean ([1]; ALS patients, Fed): 48400 ng/mL
Cmax, 2.5th percentile ([1]; ALS patients, Fed): 8740 ng/mL
Cmax, 97.5th percentile ([1]; ALS patients, Fed): 112000 ng/mL
Cmax, Geometric mean ([1]; ALS patients, Fed): 39400 ng/mL
Cmax, Median ([1]; ALS patients, Fed): 43900 ng/mL
estimated steady-state mean Cmax ([1]; ALS patients, based on population PK): 131000 ng/mL
terminal elimination half-life ([1]; based on typical values for CLPB/F and VPB/F): 0.45 h
effect of mild renal insufficiency on pharmacokinetics ([1]; eGFR greater than 60 mL/min, model-based analysis): no significant correlation
decrease in Ka, fed versus fasting ([1]; final model projection): 60%
CL/F, apparent (oral) metabolic clearance of phenylbutyrate to phenylacetate ([1]; Bootstrap Median): 14.7 L/h
Ka, PB oral absorption rate constant under fasting conditions ([1]; Bootstrap Median): 1.96
Ka, oral absorption rate constant when phenylbutyrate is administered with food ([1]; Bootstrap Median): 0.779
V/F, apparent volume of distribution of phenylbutyrate ([1]; Bootstrap Median): 9.7 L
CL/F, apparent (oral) metabolic clearance of phenylbutyrate to phenylacetate ([1]; Final Model mean estimate): 14.8 L/h
Ka, PB oral absorption rate constant under fasting conditions ([1]; Final Model mean estimate): 1.92
Ka, oral absorption rate constant when phenylbutyrate is administered with food ([1]; Final Model mean estimate): 0.767
V/F, apparent volume of distribution of phenylbutyrate ([1]; Final Model mean estimate): 9.6 L
fraction unbound [2]: 0.18
half-life ([4]; both sexes, T1/2): 0.46 h
Tmax ([4]; both sexes, Tmax): 0.5 h
Tmax ([4]; both sexes, Tmax Median): 0.5 h
half-life [4, 8]: 0.4 to 0.71 h
Cmax ([4]; both sexes, mean Cmax): 188000 ng/mL
Cmax ([4]; both sexes, po, Cmax): 188000 ng/mL
AUC(0-inf) Adj Geo Mean ([4]; both): 261000 ng·h/mL
AUC(0-last), Adj Geo Mean ([4]; both): 241000 ng·h/mL
Cmax, Adj Geo Mean ([4]; both): 191000 ng/mL
Tmax ([4]; both): 0.25 h
concentrations remained quantifiable until ([4]; both): 3.00 to 5.00 h
decrease in AUC with high-fat, high-calorie meal ([4]; both): 55%
time at which plasma concentrations typically peaked ([4]; both): 0.5 to 1 h
time by which eliminated from systemic circulation ([4]; both): ≤ 6 h
time by which plasma concentrations fell below LLOQ ([4]; both): 4 to 5 h
time from which plasma concentrations were evident ([4]; both): 0.25 h
time of maximum plasma concentrations (range) ([4]; both): 0.25 to 0.50 h
median time to Cmax [4]: 1 h
accumulation in plasma after once- or twice-daily dosing [5]: no accumulation
SMILES: O=C(O)CCCc1ccccc1 [PB, sodium phenylbutyrate]
relationship between exposure and body weight ([1]; population PK analysis): not appreciably affected by body weight
fraction excreted in the urine as phenylacetylglutamine [3]: 80-100%

Plasma protein binding [7]: ~99%
fraction unbound [2]: 0.02
AUC(0-inf) ([4]; both sexes, AUC(0-inf)): 3910 ng·h/mL
AUC(0-t) ([4]; both sexes, AUC(0-last)): 4360 ng·h/mL
Cmax ([4]; both sexes, Cmax): 741 ng/mL
half-life ([4]; both sexes, T1/2): 4.34 h
Tmax ([4]; both sexes, Tmax): 4.5 h
Tmax ([4]; both sexes, Tmax Median): 4.5 h
Vd/F ([4]; both sexes, Vz/F): 1600 L
half-life [4, 8]: 2.51 to 8.71 h
Cmax ([4]; both sexes, mean Cmax): 871 ng/mL
Cmax ([4]; both sexes, po, Cmax): 741 ng/mL
Tmax ([4]; both sexes, po, Tmax, Median): 4.5 h
AUG(0-last) ([4]; both): 4360 (79.4) ng.h/ml
Tmax ([4]; both): 10.00 h
increase in exposure (AUC) with high-fat, high-calorie meal ([4]; both): 46%
time of maximum plasma concentrations (range) ([4]; both): 1.50 to 10.00 h
AUC(0-last), Adj Geo Mean ([4]; both, po): 4460 ng·h/mL
Cmax, Adj Geo Mean ([4]; both, po): 755 ng/mL
median time to Cmax [4]: 4.5 h
concentration at 1 h ([5]; Plasma Concentration, Mean): 503 ng/mL
concentration at 4 h ([5]; Plasma Concentration, Mean): 636 ng/mL
concentration at 1 h ([5]; Plasma Concentration, Median): 248 ng/mL
concentration at 4 h ([5]; Plasma Concentration, Median): 446 ng/mL
concentration at 1 h [5, 9]: 448 ng/mL
concentration at 4 h [5, 9]: 566 ng/mL
Plasma Concentration, Median ([5]; both): 20.0 ng/mL
Plasma Concentration, Min ([5]; both): 20.0 ng/mL
steady state reached by ([5]; both): ≤ 12 Week
Plasma Concentration, Min ([5]; both, 1 h): 20.0 ng/mL
Plasma Concentration, Min ([5]; both, 4 h): 20.0 ng/mL
accumulation in plasma after once- or twice-daily dosing [5]: little accumulation
effect of age on steady-state plasma concentration [5]: no difference
effect of mild renal insufficiency on steady-state plasma concentration [5]: no discernible difference
SMILES: C[C@H](CCC(=O)NCCS(=O)(=O)O)[C@H]1CC[C@H]2[C@@H]3[C@@H](O)C[C@@H]4C[C@H](O)CC[C@]4(C)[C@H]3CC[C@]12C [TURSO, taurursodiol]
metabolites detected in human hepatocytes versus rat and minipig hepatocytes [6]: also detected in rat and minipig hepatocytes
steady-state plasma concentrations versus endogenous levels [5]: at least an order of magnitude higher than endogenous levels
